pIC50: −log10 of the molar value. Like-named read-outs stand apart in the source and are kept apart here.
How the values were obtained:
[1] = target: T1, HIF-2α HIS TAG-PASB Domain (Homo sapiens, UniProt Q99814); experiment: HIF-2α Scintillation Proximity Assay (SPA); format: binding; details: for pIC50: read-out: Scintillation Proximity Assay IC50
T1 construct: 100 nM HIF-2α HIS TAG-PASB Domain
Method in brief: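 IC50 values rest on percent inhibition, where the sample signal is scaled between high and low controls. Wells contain about 100 μL: compound dispensed as 2 μL of DMSO solution, 88 μL protein-probe mix and 10 μL of beads.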

786-O-Hif-Luc cells = experiment: Luciferase Assay (HIF responsive elements reporter)
Protocol: A pool of infected cells were then selected against 2 μg/mL of puromycin (P8833, Sigma) for 10 days followed by limited dilution to select single clones. […] Each concentration was tested in triplicate. After about 24 hours, luciferase activity was determined using ONE-Glo Luciferase Assay Reagent (E6110, Promega) following the manufacturer's recommended procedure. EC50 were calculated using Dotmatics software.

[2] = read-out: Mean Luciferase EC50 (nM), 786-O-Hif-Luc cells

T1 sequence (Q99814 240-350 limits assumed): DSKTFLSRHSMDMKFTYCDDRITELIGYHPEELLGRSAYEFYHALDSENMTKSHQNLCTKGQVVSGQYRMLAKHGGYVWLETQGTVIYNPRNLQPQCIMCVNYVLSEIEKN

Compound | pIC50 [1] | EC50 (786-O-Hif-Luc cells; [2]) [nM] | IC50 ([1]; Scintillation Proximity Assay IC50 (nM)) [nM] | EC50 (786-O-Hif-Luc cells; read-out: Mean Luciferase EC50 (nM)) [nM]
CC(C)(COc1ccc(S(=O)(=O)C(F)(F)F)c2c1CC(F)(F)[C@H]2O)S(C)(=O)=O [Compound 723] | < 6.00 | > 1000 | – | –
N#C[C@H]1C[C@H](Oc2ccc(S(=O)(=O)C(F)(F)F)c3c2CC(F)(F)[C@H]3O)C1 [Compound 786] | > 7.30 | < 50 | – | –
CC1(C)C[C@@H](O)C[C@@H](c2ccc(S(=O)(=O)C(F)(F)F)c3c2CC(F)(F)[C@H]3O)C1 [Compound 550] | > 7.30 | 250 to 1000 | – | –
CCOc1ccc(S(=O)(=O)C(F)(F)F)c2c1CC(F)(F)C2O (stereo not shown) [Compound 591] | 6.00 to 6.60 | 250 to 1000 | – | –
N#Cc1cc(F)cc(Oc2ccc(S(=O)(=O)C(F)F)c(C#N)c2Cl)c1 [Compound 39] | 6.60 to 7.30 | 250 to 1000 | – | –
O=S1(=O)c2ccc(Oc3cccc4cn[nH]c34)c(C(F)F)c2C(O)C1(F)F (stereo not shown) [Compound 441] | < 6.00 | > 1000 | – | –
N#Cc1cccc(Oc2ccc3c(c2Br)[C@@H](O)C(F)(F)S3(=O)=O)c1 [Compound 430] | > 7.30 | < 50 | – | –
O=S(=O)(c1ccc(OC2CCC2)c2c1C(O)CC2)C(F)(F)F (stereo not shown) [Compound 601] | 6.00 to 6.60 | > 1000 | – | –
N#Cc1cccc(Oc2ccc3c(c2C(F)F)[C@@H](O)C(F)(F)S3(=O)=O)c1 [Compound 435] | > 7.30 | < 50 | – | –
O=S1(=O)c2ccc(Oc3cc(F)cc(Cl)c3)c(Br)c2[C@H](O)C1(F)F [Compound 405] | – | – | 50 to 249 | 50 to 249
O=S(=O)(c1ccc(OC2CCCC2)c2c1C(O)CC2)C(F)(F)F (stereo not shown) [Compound 603] | 6.00 to 6.60 | > 1000 | – | –
N#Cc1cc(F)cc(Oc2ccc(S(=O)(=O)C(F)(F)F)c3c2CC(F)(F)[C@H]3NCCO)c1 [Compound 291] | < 6.00 | > 1000 | – | –
N#CN=S(=O)(CF)c1ccc(Oc2cc(F)cc(C#N)c2)c2c1[C@H](O)[C@H](F)C2 (stereo partly shown) [Compound 276] | 6.60 to 7.30 | 50 to 249 | – | –
COCCOc1ccc(S(=O)(=O)C(F)(F)F)c2c1CC(F)(F)C2O (stereo not shown) [Compound 595] | 6.00 to 6.60 | 250 to 1000 | – | –
CC(O)c1c(S(=O)(=O)C(F)(F)F)ccc(Oc2cc(F)cc(Cl)c2)c1Br (stereo not shown) [Compound 103] | 6.00 to 6.60 | > 1000 | – | –
N#Cc1c(Oc2cc(F)cc(Cl)c2)ccc2c1[C@@H](O)CS2(=O)=O [Compound 348] | > 7.30 | 50 to 249 | – | –

Compound | pIC50 [1] | EC50 (786-O-Hif-Luc cells; [2]) [nM] | IC50 ([1]; Scintillation Proximity Assay IC50 (nM)) [nM] | EC50 (786-O-Hif-Luc cells; read-out: Mean Luciferase EC50 (nM)) [nM]
Cc1c(Oc2cc(F)cc(C#N)c2)ccc(S(=O)(=O)C(F)(F)F)c1C=O [Compound 145] | 6.60 to 7.30 | 250 to 1000 | – | –
CS(=O)(=O)c1ccc(Oc2cc(F)cc(C#N)c2)c2c1C(=O)C(F)(Cl)C2 (stereo not shown) [Compound 269] | 6.00 to 6.60 | > 1000 | – | –
CC(C)(C#N)COc1ccc(S(=O)(=O)C(F)(F)F)c2c1CCC2O (stereo not shown) [Compound 609] | 6.60 to 7.30 | > 1000 | – | –
COc1cc(F)cc(Oc2ccc(S(=O)(=O)C(F)F)c3c2CC[C@H]3O)c1 [Compound 6] | > 7.30 | 50 to 249 | – | –
O=S(=O)(c1ccc(OC2CCOCC2)c2c1C(O)C(F)(F)C2)C(F)F (stereo not shown) [Compound 782] | 6.60 to 7.30 | 50 to 249 | – | –
N#Cc1cnn(Cc2ccc(S(=O)(=O)C(F)(F)F)c3c2CC(F)(F)[C@H]3O)c1 [Compound 538] | < 6.00 | > 1000 | – | –
CCCOc1ccc(C(F)(F)F)c2c1CC(F)(F)/C2=N\O [Compound 703] | 6.00 to 6.60 | > 1000 | – | –
O=S(=O)(c1ccc(OCCO)c2c1C(O)C(F)(F)C2)C(F)(F)F (stereo not shown) [Compound 614] | 6.60 to 7.30 | > 1000 | – | –
CCCc1ccc(S(=O)(=O)C(F)(F)F)c2c1CC(F)(F)C2O (stereo not shown) [Compound 517] | 6.60 to 7.30 | 250 to 1000 | – | –
N=S(=O)(c1ccc(Oc2cc(F)cc(Cl)c2)c(Br)c1Cl)C(F)(F)F (stereo not shown) [Compound 75] | 6.60 to 7.30 | > 1000 | – | –
Cc1c(S(C)(=O)=O)ccc(Oc2cc(F)cc(F)c2)c1C#N [Compound 52] | > 7.30 | 250 to 1000 | – | –
O=C1c2c(S(=O)(=O)C(F)F)ccc(Oc3cncc(Cl)c3)c2CC1(F)F [Compound 182] | 6.00 to 6.60 | > 1000 | – | –
N#Cc1cc(F)cc(Oc2ccc3c(c2C#N)C(N)C(F)(F)S3(=O)=O)c1 (stereo not shown) [Compound 464] | < 6.00 | > 1000 | – | –
O=S(=O)(c1ccc(Oc2cc(F)cc(F)c2)c2c1CC(O)C2)C(F)F (stereo not shown) [Compound 22] | 6.00 to 6.60 | > 1000 | – | –
CC(C)Oc1ccc(S(=O)(=O)C(F)(F)F)c2c1CC(F)(F)C2O (stereo not shown) [Compound 593] | > 7.30 | 50 to 249 | – | –
O=S(=O)(c1ccc(OCC(F)(F)F)c2c1[C@H](O)C(F)(F)C2)C(F)(F)F [Compound 675] | > 7.30 | < 50 | – | –
